Assay results from the supplement of paper PMC10307832.

Columns and labels:
Experiment in all cases: relative viability (nuclei count vs DMSO), 5 days (fraction); higher = more cells survive
HCC-15 = test system: HCC-15
Summary of the method: (§1)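 Lung cancer cell lines, seeded in 1536-well plates, were treated the following day by pin tool with a single drug or with five library-drug doses (not always all listed) in √10 steps on top of a fixed anchor-drug dose. Cells were fixed and nuclei stained in one step after 5 days, and nuclei were counted. Relative viability is the nuclei count for treated wells divided by that for vehicle wells, reported as medians of duplicate plates.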

COR-L 105 = test system: COR-L 105
Summary of the method: as §1

HCC-366 = test system: HCC-366
Summary of the method: as §1

EKVX = test system: EKVX
Summary of the method: as §1

NCI-H1975 = test system: NCI-H1975
Summary of the method: as §1

LXF-289 = test system: LXF-289
Summary of the method: as §1

BEN = test system: BEN
Summary of the method: as §1

NCI-H1755 = test system: NCI-H1755
Summary of the method: as §1

HARA = test system: HARA
Summary of the method: as §1

201T = test system: 201T
Summary of the method: as §1

NCI-H1703 = test system: NCI-H1703
Summary of the method: as §1

LU99A = test system: LU99A
Summary of the method: as §1

NCI-H1734 = test system: NCI-H1734
Summary of the method: as §1

NCI-H1993 = test system: NCI-H1993
Summary of the method: as §1

NCI-H1650 = test system: NCI-H1650
Summary of the method: as §1

HCC-78 = test system: HCC-78
Summary of the method: as §1

SK-LU-1 = test system: SK-LU-1
Summary of the method: as §1

COR-L23 = test system: COR-L23
Summary of the method: as §1

NCI-H1944 = test system: NCI-H1944
Summary of the method: as §1

HCC-827 = test system: HCC-827
Summary of the method: as §1

NCI-H3122 = test system: NCI-H3122
Summary of the method: as §1

NCI-H596 = test system: NCI-H596
Summary of the method: as §1

`CCCCCCCCCCCC1=C(O)C(=O)C=C(O)C1=O` [Embelin] + C[C@@H](Oc1cc(-c2cnn(C3CCNCC3)c2)cnc1N)c1c(Cl)ccc(F)c1Cl [Crizotinib] (partner 1 µM) was tested, and the relative viability (HCC-15; first compound 0.08 µM) was 0.779, the relative viability (HCC-15; first compound 0.8 µM) was 0.852 and the relative viability (HCC-15; first compound 2.53 µM) was 1. For the same molecule, the relative viability (HCC-15; first compound 8 µM) was 0.907, the relative viability (COR-L 105; first compound 0.08 µM) was 0.727 and the relative viability (COR-L 105; first compound 0.8 µM) was 0.932. It also gave a relative viability (COR-L 105; first compound 2.53 µM) of 0.875, a relative viability (COR-L 105; first compound 8 µM) of 1.04 and a relative viability (HCC-366; first compound 0.08 µM) of 0.633. The relative viability (HCC-366; first compound 0.8 µM) was 0.572, the relative viability (HCC-366; first compound 2.53 µM) was 1.02 and the relative viability (HCC-366; first compound 8 µM) was 0.637. The relative viability (EKVX; first compound 0.08 µM) was 0.78, the relative viability (EKVX; first compound 0.8 µM) was 1.05 and the relative viability (EKVX; first compound 2.53 µM) was 1.07. The relative viability (EKVX; first compound 8 µM) was 1.07, the relative viability (NCI-H1975; first compound 0.08 µM) was 1.1 and the relative viability (NCI-H1975; first compound 0.8 µM) was 0.999. The relative viability (NCI-H1975; first compound 2.53 µM) was 1, the relative viability (NCI-H1975; first compound 8 µM) was 1.04 and the relative viability (LXF-289; first compound 0.08 µM) was 0.835. The relative viability (LXF-289; first compound 0.8 µM) was 0.818, the relative viability (LXF-289; first compound 2.53 µM) was 0.884 and the relative viability (LXF-289; first compound 8 µM) was 0.896. The relative viability (BEN; first compound 0.08 µM) was 0.845, the relative viability (BEN; first compound 0.8 µM) was 1.18 and the relative viability (BEN; first compound 2.53 µM) was 1.17. The relative viability (BEN; first compound 8 µM) was 0.849, the relative viability (NCI-H1755; first compound 0.08 µM) was 0.829 and the relative viability (NCI-H1755; first compound 0.8 µM) was 0.877. It also gave a relative viability (NCI-H1755; first compound 2.53 µM) of 0.921, a relative viability (NCI-H1755; first compound 8 µM) of 0.871 and a relative viability (HARA; first compound 0.08 µM) of 1.03. For the same molecule, the relative viability (HARA; first compound 0.8 µM) was 1.08, the relative viability (HARA; first compound 2.53 µM) was 1.12 and the relative viability (HARA; first compound 8 µM) was 1.23. For the same molecule, the relative viability (201T; first compound 0.08 µM) was 1.02, the relative viability (201T; first compound 0.8 µM) was 1.07 and the relative viability (201T; first compound 2.53 µM) was 1.04. For the same molecule, the relative viability (201T; first compound 8 µM) was 1.06, the relative viability (NCI-H1703; first compound 0.08 µM) was 0.8 and the relative viability (NCI-H1703; first compound 0.8 µM) was 1.17. It also gave a relative viability (NCI-H1703; first compound 2.53 µM) of 0.806, a relative viability (NCI-H1703; first compound 8 µM) of 0.975 and a relative viability (LU99A; first compound 0.08 µM) of 0.605. The relative viability (LU99A; first compound 0.8 µM) was 0.736, the relative viability (LU99A; first compound 2.53 µM) was 0.55 and the relative viability (LU99A; first compound 8 µM) was 0.606. The relative viability (NCI-H1734; first compound 0.08 µM) was 0.71, the relative viability (NCI-H1734; first compound 0.8 µM) was 0.825 and the relative viability (NCI-H1734; first compound 2.53 µM) was 0.693. It also gave a relative viability (NCI-H1734; first compound 8 µM) of 0.747, a relative viability (NCI-H1993; first compound 0.08 µM) of 1 and a relative viability (NCI-H1993; first compound 0.8 µM) of 0.844. For the same molecule, the relative viability (NCI-H1993; first compound 2.53 µM) was 0.943, the relative viability (NCI-H1993; first compound 8 µM) was 0.793 and the relative viability (NCI-H1650; first compound 0.08 µM) was 0.954. For the same molecule, the relative viability (NCI-H1650; first compound 0.8 µM) was 1.04, the relative viability (NCI-H1650; first compound 2.53 µM) was 0.981 and the relative viability (NCI-H1650; first compound 8 µM) was 1.16. The relative viability (HCC-78; first compound 0.08 µM) was 0.344, the relative viability (HCC-78; first compound 0.8 µM) was 0.373 and the relative viability (HCC-78; first compound 2.53 µM) was 0.347. It also gave a relative viability (HCC-78; first compound 8 µM) of 0.321, a relative viability (SK-LU-1; first compound 0.08 µM) of 1.08 and a relative viability (SK-LU-1; first compound 0.8 µM) of 1.06. The relative viability (SK-LU-1; first compound 2.53 µM) was 0.941, the relative viability (SK-LU-1; first compound 8 µM) was 0.922 and the relative viability (COR-L23; first compound 0.08 µM) was 0.691. For the same molecule, the relative viability (COR-L23; first compound 0.8 µM) was 0.762, the relative viability (COR-L23; first compound 2.53 µM) was 0.701 and the relative viability (COR-L23; first compound 8 µM) was 0.745. For the same molecule, the relative viability (NCI-H1944; first compound 0.08 µM) was 1.19, the relative viability (NCI-H1944; first compound 0.8 µM) was 1.21 and the relative viability (NCI-H1944; first compound 2.53 µM) was 1.2. The relative viability (NCI-H1944; first compound 8 µM) was 1.17, the relative viability (HCC-827; first compound 0.08 µM) was 0.98 and the relative viability (HCC-827; first compound 0.8 µM) was 0.931. It also gave a relative viability (HCC-827; first compound 2.53 µM) of 0.976, a relative viability (HCC-827; first compound 8 µM) of 0.977 and a relative viability (NCI-H3122; first compound 0.08 µM) of 0.296. The relative viability (NCI-H3122; first compound 0.8 µM) was 0.293, the relative viability (NCI-H3122; first compound 2.53 µM) was 0.273 and the relative viability (NCI-H3122; first compound 8 µM) was 0.282. It also gave a relative viability (NCI-H596; first compound 0.08 µM) of 1.06, a relative viability (NCI-H596; first compound 0.8 µM) of 1.62 and a relative viability (NCI-H596; first compound 2.53 µM) of 1.2. It also gave a relative viability (NCI-H596; first compound 8 µM) of 1.01.
